Structures can show the parent of a compound that is named as a salt.

The experiment deals with human TRPV1 (Homo sapiens (Human), UniProt Q8NER1). The following applies: read-out: IC50 (μM), antagonist effect against human TRPV1; CHO cells expressing human TrpV1; stimulated with 2.5 μM NADA (EC80); mean of at least three independent experiments.
Sequence of human TRPV1 (Q8NER1 whole entry): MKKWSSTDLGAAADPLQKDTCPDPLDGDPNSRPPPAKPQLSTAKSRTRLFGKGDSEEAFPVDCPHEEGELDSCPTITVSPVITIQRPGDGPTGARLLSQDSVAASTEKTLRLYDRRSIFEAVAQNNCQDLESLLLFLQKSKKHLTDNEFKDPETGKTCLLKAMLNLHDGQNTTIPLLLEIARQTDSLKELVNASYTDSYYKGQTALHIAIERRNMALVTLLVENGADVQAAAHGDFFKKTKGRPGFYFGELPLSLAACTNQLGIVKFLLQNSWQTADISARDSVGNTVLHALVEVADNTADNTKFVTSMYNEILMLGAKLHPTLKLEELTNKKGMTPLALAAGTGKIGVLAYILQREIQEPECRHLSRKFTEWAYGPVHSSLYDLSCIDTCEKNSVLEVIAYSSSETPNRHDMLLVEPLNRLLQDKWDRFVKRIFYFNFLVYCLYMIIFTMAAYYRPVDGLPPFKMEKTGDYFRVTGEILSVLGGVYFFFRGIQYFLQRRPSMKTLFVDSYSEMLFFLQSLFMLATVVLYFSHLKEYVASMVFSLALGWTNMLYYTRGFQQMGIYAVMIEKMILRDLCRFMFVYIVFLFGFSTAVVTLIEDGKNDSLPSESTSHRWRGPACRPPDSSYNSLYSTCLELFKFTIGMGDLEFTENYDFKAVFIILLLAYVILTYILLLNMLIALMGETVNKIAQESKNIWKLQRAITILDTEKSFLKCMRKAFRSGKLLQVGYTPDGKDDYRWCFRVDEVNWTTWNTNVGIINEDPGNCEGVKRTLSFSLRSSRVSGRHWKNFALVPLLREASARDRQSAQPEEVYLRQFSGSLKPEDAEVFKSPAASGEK
What is called IC50 is the point on the concentration scale where inhibition reaches its midpoint. For `CCc1ccc2cnccc2c1CN[C@H]1C[C@H](Oc2ccc(F)c(C(F)(F)F)c2)C1` [Example 97, (1r,3r)-N-((6-ethylisoquinolin-5-yl)methyl)-3-(4-fluoro-3-(trifluoromethyl)phenoxy)cyclobutan-1-amine, HCl], the concentration for half-maximal inhibition (IC50) stood at 0.28 µM.
For `Fc1ccc(O[C@H]2C[C@H](NCc3cccc4cnc(Cl)cc34)C2)cc1C(F)(F)F` [Example 98, (1r,3r)-N-((3-chloroisoquinolin-5-yl)methyl)-3-(4-fluoro-3-(trifluoromethyl)phenoxy)cyclobutan-1-amine, HCl] the value was 0.418 µM; for `Fc1ccc(S[C@H]2C[C@H](NCc3cccc4cnccc34)C2)cc1C(F)(F)F` [Example 99, (1r,3r)-3-((4-fluoro-3-(trifluoromethyl)phenyl)thio)-N-(isoquinolin-5-ylmethyl)cyclobutan-1-amine, HCl], 0.362 µM; for `Fc1ccc(S[C@H]2C[C@H](NCc3c(F)ccc4cnccc34)C2)cc1C(F)(F)F` [Example 100, (1r,3r)-3-((4-fluoro-3-(trifluoromethyl)phenyl)thio)-N-((6-fluoroisoquinolin-5-yl)methyl)cyclobutan-1-amine, HCl], 0.074 µM.
For `Fc1cc(O[C@H]2C[C@H](NCc3c(F)ccc4cnccc34)C2)ccc1C(F)F` [Example 101, (1r,3r)-3-(4-(difluoromethyl)-3-fluorophenoxy)-N-((6-fluoroisoquinolin-5-yl)methyl)cyclobutan-1-amine] the value was 0.0147 µM; for `Fc1ccc(O[C@H]2C[C@H](NCc3c(F)ccc4cncnc34)C2)cc1C(F)(F)F` [Example 102, (1r,3r)-3-(4-fluoro-3-(trifluoromethyl)phenoxy)-N-((7-fluoroquinazolin-8-yl)methyl)cyclobutan-1-amine], 0.0603 µM.
For `O=C(Cc1c(F)cc(CO)c2cnccc12)N[C@H]1C[C@H](Oc2ccc(F)c(C(F)(F)F)c2)C1` [Example 103, N-((1r,3r)-3-(4-fluoro-3-(trifluoromethyl)phenoxy)cyclobutyl)-2-(6-fluoro-8-(hydroxymethyl)isoquinolin-5-yl)acetamide] the value was 0.00044 µM.
In the case of `NCC(O)c1cc(F)c(CN[C@H]2C[C@H](Oc3ccc(F)c(C(F)(F)F)c3)C2)c2ccncc12` (stereo partly shown) [Example 104, 2-amino-1-(6-fluoro-5-((((1r,3r)-3-(4-fluoro-3-(trifluoromethyl)phenoxy)cyclobutyl)amino)methyl)isoquinolin-8-yl)ethan-1-ol], the IC50 was found to be 2.15 µM.
For `Fc1ccc(CO[C@H]2C[C@H](NCc3c(F)ccc4cnccc34)C2)c(F)c1` [Example 105, (1r,3r)-3-((2,4-difluorobenzyl)oxy)-N-((6-fluoroisoquinolin-5-yl)methyl)cyclobutan-1-amine] the value was 1.28 µM; for `Cc1cc(O[C@H]2C[C@H](NCc3c(F)ccc4cnccc34)C2)cc(C(F)(F)F)n1` [Example 106, (1r,3r)-N-((6-fluoroisoquinolin-5-yl)methyl)-3-((2-methyl-6-(trifluoromethyl)pyridin-4-yl)oxy)cyclobutan-1-amine], 1.65 µM; for `Fc1ccc2cnccc2c1CN[C@H]1C[C@H](Oc2nc(C(F)(F)F)cs2)C1` [Example 107, (1r,3r)-N-((6-fluoroisoquinolin-5-yl)methyl)-3-((4-(trifluoromethyl)thiazol-2-yl)oxy)cyclobutan-1-amine], 1.91 µM.
For `N#Cc1ncc(O[C@H]2C[C@H](NCc3c(F)ccc4cnccc34)C2)cn1` [Example 108, 5-((1r,3r)-3-(((6-fluoroisoquinolin-5-yl)methyl)amino)cyclobutoxy)pyrimidine-2-carbonitrile] the value was 2.51 µM; for `Nc1nccc2c(CN[C@H]3C[C@H](Oc4ccc(F)c(C(F)(F)F)c4)C3)cccc12` [Example 109, 5-((((1r,3r)-3-(4-fluoro-3-(trifluoromethyl)phenoxy)cyclobutyl)amino)methyl)isoquinolin-1-amine], 1.46 µM.
With `Fc1ccc2cnccc2c1CN[C@H]1C[C@H](Oc2ccc(C(F)F)nc2)C1` [Example 110, (1r,3r)-3-((6-(difluoromethyl)pyridin-3-yl)oxy)-N-((6-fluoroisoquinolin-5-yl)methyl)cyclobutan-1-amine], the 50% inhibitory concentration (IC50) came to 1.38 µM.
Turning to `Fc1ccc2cnccc2c1CN[C@H]1C[C@H](Oc2ccnc(C(F)F)c2)C1` [Example 111, (1r,3r)-3-((2-(difluoromethyl)pyridin-4-yl)oxy)-N-((6-fluoroisoquinolin-5-yl)methyl)cyclobutan-1-amine], the IC50 worked out at 1.65 µM.
Turning to `FC(F)(F)c1ccc(O[C@H]2C[C@H](NCc3cccc4cnccc34)C2)cn1` [Example 112, (1r,3r)-N-(isoquinolin-5-ylmethyl)-3-((6-(trifluoromethyl)pyridin-3-yl)oxy)cyclobutan-1-amine], the IC50 worked out at 2.69 µM.
